Results on 25 compounds are retold here after patent publication US11214565B2, “Compound, compositions, and methods” (Denali Therapeutics Inc., priority 2015, dated 2022).

Sequence of LRRK2 G2019S enzyme (Q5S007 whole entry G2019S): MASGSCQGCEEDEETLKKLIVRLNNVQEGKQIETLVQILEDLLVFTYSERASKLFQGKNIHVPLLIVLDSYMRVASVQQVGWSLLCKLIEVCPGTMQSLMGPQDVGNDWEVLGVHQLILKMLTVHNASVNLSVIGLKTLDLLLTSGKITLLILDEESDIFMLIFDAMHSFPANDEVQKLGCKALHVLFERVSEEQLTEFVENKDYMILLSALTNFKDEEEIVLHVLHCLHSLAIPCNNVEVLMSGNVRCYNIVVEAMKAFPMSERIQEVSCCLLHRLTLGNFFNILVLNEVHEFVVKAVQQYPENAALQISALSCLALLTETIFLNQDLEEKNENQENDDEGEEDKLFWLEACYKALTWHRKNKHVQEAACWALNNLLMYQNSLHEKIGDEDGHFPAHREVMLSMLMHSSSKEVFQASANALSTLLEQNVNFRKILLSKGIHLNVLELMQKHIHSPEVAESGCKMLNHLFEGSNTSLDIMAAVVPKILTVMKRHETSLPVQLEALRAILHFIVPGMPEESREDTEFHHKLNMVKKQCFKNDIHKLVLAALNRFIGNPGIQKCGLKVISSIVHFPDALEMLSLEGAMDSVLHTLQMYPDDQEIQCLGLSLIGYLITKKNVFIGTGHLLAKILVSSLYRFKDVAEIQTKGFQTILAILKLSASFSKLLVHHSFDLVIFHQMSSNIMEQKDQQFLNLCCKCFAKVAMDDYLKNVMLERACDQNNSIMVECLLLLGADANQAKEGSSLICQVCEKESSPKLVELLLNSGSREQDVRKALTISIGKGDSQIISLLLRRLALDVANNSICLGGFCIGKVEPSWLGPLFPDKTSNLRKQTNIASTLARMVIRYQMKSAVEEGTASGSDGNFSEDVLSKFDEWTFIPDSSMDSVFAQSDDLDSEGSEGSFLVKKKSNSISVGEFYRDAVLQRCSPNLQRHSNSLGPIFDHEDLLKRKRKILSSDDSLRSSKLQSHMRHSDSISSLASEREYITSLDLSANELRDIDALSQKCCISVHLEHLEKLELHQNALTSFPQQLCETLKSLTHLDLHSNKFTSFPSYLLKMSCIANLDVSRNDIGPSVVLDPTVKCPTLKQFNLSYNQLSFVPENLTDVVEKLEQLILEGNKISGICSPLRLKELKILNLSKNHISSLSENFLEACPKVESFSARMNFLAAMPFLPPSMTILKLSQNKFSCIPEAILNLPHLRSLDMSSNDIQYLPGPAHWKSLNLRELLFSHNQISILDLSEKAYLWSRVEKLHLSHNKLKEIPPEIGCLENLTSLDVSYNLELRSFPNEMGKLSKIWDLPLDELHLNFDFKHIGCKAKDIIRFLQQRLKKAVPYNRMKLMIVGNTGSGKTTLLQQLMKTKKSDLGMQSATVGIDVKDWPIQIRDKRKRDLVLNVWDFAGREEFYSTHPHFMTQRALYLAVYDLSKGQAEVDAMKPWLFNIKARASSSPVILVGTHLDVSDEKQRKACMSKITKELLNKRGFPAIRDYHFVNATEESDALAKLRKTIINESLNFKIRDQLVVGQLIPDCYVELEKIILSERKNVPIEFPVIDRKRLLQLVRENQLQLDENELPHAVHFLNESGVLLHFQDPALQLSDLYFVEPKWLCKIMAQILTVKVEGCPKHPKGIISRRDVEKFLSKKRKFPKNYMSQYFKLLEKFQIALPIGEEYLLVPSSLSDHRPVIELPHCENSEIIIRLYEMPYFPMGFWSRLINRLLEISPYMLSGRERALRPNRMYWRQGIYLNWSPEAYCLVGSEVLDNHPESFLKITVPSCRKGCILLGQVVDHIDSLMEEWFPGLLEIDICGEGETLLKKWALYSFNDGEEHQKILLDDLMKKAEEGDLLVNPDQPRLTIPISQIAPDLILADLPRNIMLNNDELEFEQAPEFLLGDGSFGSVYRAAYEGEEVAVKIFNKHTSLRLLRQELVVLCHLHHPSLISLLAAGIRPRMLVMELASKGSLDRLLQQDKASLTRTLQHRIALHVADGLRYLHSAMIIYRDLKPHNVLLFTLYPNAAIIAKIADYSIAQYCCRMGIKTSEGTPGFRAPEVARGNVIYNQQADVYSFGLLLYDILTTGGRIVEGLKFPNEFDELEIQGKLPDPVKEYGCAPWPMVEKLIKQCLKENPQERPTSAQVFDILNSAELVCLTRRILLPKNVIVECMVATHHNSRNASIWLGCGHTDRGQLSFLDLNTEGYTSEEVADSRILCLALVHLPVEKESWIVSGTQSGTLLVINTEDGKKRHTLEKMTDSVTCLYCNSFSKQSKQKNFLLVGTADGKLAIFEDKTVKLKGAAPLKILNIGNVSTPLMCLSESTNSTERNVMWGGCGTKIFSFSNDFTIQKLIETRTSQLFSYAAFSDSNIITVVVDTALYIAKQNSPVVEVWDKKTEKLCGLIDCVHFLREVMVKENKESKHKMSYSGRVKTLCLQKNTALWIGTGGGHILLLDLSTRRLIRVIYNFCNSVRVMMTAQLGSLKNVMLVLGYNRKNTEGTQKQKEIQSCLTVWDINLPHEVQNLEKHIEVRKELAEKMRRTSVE

One assay addresses LRRK2 G2019S enzyme (Homo sapiens (Human), UniProt Q5S007, G2019S). Briefly: LRRK2 G2019S TR-FRET biochemical kinase assay (LRRKtide substrate). To be noted: Table A-2; 5 nM LRRK2, 134 μM ATP, 60 minute reaction, 23° C. The protocol: LRRK2 G2019S enzyme, Substrate (LRRKtide), ATP, TR-FRET dilution buffer, pLRRKtide antibody, 384-well assay plate, and DMSO.
50 mM Tris pH 7.5, 10 mM MgCl2, 1 mM EGTA, 0.01% Brij-35, 2 mM DTT, 5 nM LRRK2, 134 μM ATP, 60 minute reaction time, 23° C. reaction temperature, and 10 μL total reaction volume.
1×TR-FRET dilution buffer, 10 mM EDTA, 2 nM antibody, 23° C. reaction temperature, and 10 μL total reaction volume.
Compound solutions were prepared by initially diluting to 1 mM with DMSO. 35 μL of reference compound solution, 35 μL of test compound solution, and 35 μL HPE were successively added to the source plate (384-well assay plate, Labcyte). The plates were centrifuged at 2500 rpm for 1 minute and sealed in foil. POD was used to perform a 3.162 fold serial dilution and 100 nL of reference compound solution, test compound solution, HPE and ZPE were transferred to assay plates. The assay plate was centrifuged at 2500 rpm for 1 minute, and sealed with foil.
To perform the enzyme reaction, 5 μL of LRRKtide substrate and kinase mixture in assay buffer was added to all wells of the assay plate. The plate was centrifuged to concentrate the mixture at the bottom of the wells. The assay plate was incubated at 23° C. for 20 minutes. Following incubation, 5 μL of 2×ATP in assay buffer was added to each well, and plates were centrifuged to concentrate the mixture at the bottom of the wells. The plate was incubated at 23° C. for 60 minutes.
To perform the detection of the reaction, EDTA completely mixed in TR-FRET dilution buffer was added to antibody reagent. 10 μL of detection reagent was added to all wells of each well of the assay-plate and the plate was centrifuged to concentrate the mixture at the bottom of the wells. The plate was then incubated at 23° C. for 60 minutes. Plates were read on Perkin Elmer Envision 2104 instrument in TR-FRET mode using a 340 nm excitation filter, 520 nm fluorescence emission filter, and 490 or 495 nm terbium emission filter.
B-2, C2, and D-4 respectively.
The term IC50 denotes the midpoint of a concentration-inhibition curve. Low values mean greater potency, high ones weaker potency. Take `Cc1nn(C(C)(C)C#N)cc1Nc1ncc(C(F)(F)F)c([C@@H]2C[C@H]2F)n1` (single isomer, unassigned) [Compound A-12, 2-(4-((4-(2-fluorocyclopropyl)-5-(trifluoromethyl)pyrimidin-2-yl)amino)-3-methyl-1H-pyrazol-1-yl)-2-methylpropanenitrile]: the IC50 is > 60 nM. Same read-out and setting: for `Cc1nn(C(C)(C)C#N)cc1Nc1ncc(C(F)(F)F)c([C@H]2C[C@@H]2F)n1` (single isomer, unassigned) [Compound A-13, 2-(4-((4-(2-fluorocyclopropyl)-5-(trifluoromethyl)pyrimidin-2-yl)amino)-3-methyl-1H-pyrazol-1-yl)-2-methylpropanenitrile] the value was > 60 nM. Same read-out and setting: with `CC1(O)CCCC1n1ncc(Nc2ncc(C(F)(F)F)c(C3CC3)n2)c1Cl` (single isomer, unassigned) [Compound A-49, 2-(5-chloro-4-((4-cyclopropyl-5-(trifluoromethyl)pyrimidin-2-yl)amino)-1H-pyrazol-1-yl)-1-methylcyclopentanol] the figure was > 60 nM; with `CC1(O)CCCC1n1ncc(Nc2ncc(C(F)(F)F)c(C3CC3)n2)c1Cl` (single isomer, unassigned) [Compound A-50, 2-(5-chloro-4-((4-cyclopropyl-5-(trifluoromethyl)pyrimidin-2-yl)amino)-1H-pyrazol-1-yl)-1-methylcyclopentanol], < 30 nM. Turning to `CCN1CC(n2ncc(Nc3ncc(C(F)(F)F)c(C4CC4)n3)c2C)CCC1=O` (single isomer, unassigned) [Compound A-59], the IC50 was < 30 nM. In the case of `CCN1CC(n2ncc(Nc3ncc(C(F)(F)F)c(C4CC4)n3)c2C)CCC1=O` (single isomer, unassigned) [Compound A-60], the IC50 was < 30 nM. For `CCN1CC(n2cc(Nc3ncc(C(F)(F)F)c(C4CC4)n3)c(C)n2)CCC1=O` (single isomer, unassigned) [Compound A-61], the IC50 is 30 to 60 nM. For `CCN1CC(n2cc(Nc3ncc(C(F)(F)F)c(C4CC4)n3)c(C)n2)CCC1=O` (single isomer, unassigned) [Compound A-62], the 50% inhibitory concentration (IC50) was > 60 nM. On the same count and under the same terms, with `FC(F)(F)c1cnc(Nc2cnn([C@H]3CN(C4COC4)CCC3(F)F)c2Cl)nc1C1CC1` (single isomer, unassigned) [Compound A-64, N-(5-chloro-1-(4,4-difluoro-1-(oxetan-3-yl)piperidin-3-yl)-1H-pyrazol-4-yl)-4-cyclopropyl-5-(trifluoromethyl)pyrimidin-2-amine] the figure was 30 to 60 nM; with `FC(F)(F)c1cnc(Nc2cnn([C@@H]3CN(C4COC4)CCC3(F)F)c2Cl)nc1C1CC1` (single isomer, unassigned) [Compound A-65, N-(5-chloro-1-(4,4-difluoro-1-(oxetan-3-yl)piperidin-3-yl)-1H-pyrazol-4-yl)-4-cyclopropyl-5-(trifluoromethyl)pyrimidin-2-amine], < 30 nM; with `Cc1nn([C@@H]2CCn3ccnc32)cc1Nc1ncc(C(F)(F)F)c(C2CC2)n1` (single isomer, unassigned) [Compound A-78], > 60 nM. Same read-out and setting: for `Cc1nn([C@H]2CCn3ccnc32)cc1Nc1ncc(C(F)(F)F)c(C2CC2)n1` (single isomer, unassigned) [Compound A-79] the value was < 30 nM; for `Cc1nn([C@@H]2CCn3cnnc32)cc1Nc1ncc(C(F)(F)F)c(C2CC2)n1` (single isomer, unassigned) [Compound A-82], < 30 nM. Regarding `Cc1nn([C@H]2CCn3cnnc32)cc1Nc1ncc(C(F)(F)F)c(C2CC2)n1` (single isomer, unassigned) [Compound A-83], the IC50 is < 30 nM. The same measure, in the same setting: with `Cc1nn(C(C)(C)C#N)cc1Nc1ncc(C(F)(F)F)c(C2CC2)n1` [Compound A-1, 2-[4-[(5-trifluoromethyl-4-cyclopropyl-pyrimidin-2-yl)amino]-3-methyl-pyrazol-1-yl]-2-methyl-propanenitrile] the figure was < 30 nM; with `Cc1nn(C(C)(C)C#N)cc1Nc1ncc(Cl)c(C2CC2)n1` [Compound A-2, 2-[4-[(5-chloro-4-cyclopropyl-pyrimidin-2-yl)amino]-3-methyl-pyrazol-1-yl]-2-methyl-propanenitrile], < 30 nM. For the compound `Cc1nn(C(C)(C)C#N)cc1Nc1ncc(C#N)c(C2CC2)n1` [Compound A-3, 2-[[1-(1-cyano-1-methyl-ethyl)-3-methyl-pyrazol-4-yl]amino]-4-cyclopropyl-pyrimidine-5-carbonitrile], the IC50 is > 60 nM. On the same count and under the same terms, with `Cc1nn(C(C)(C)C#N)cc1Nc1ncc(C(F)(F)F)c(C2=CCCC2)n1` [Compound A-4, 2-[4-[[4-(cyclopenten-1-yl)-5-(trifluoromethyl)pyrimidin-2-yl]amino]-3-methyl-pyrazol-1-yl]-2-methyl-propanenitrile] the figure was 30 to 60 nM. For the compound `Cn1nc(C(C)(C)C#N)cc1Nc1ncc(C(F)(F)F)c(C2CC2)n1` [Compound A-5, 2-(5-((4-cyclopropyl-5-(trifluoromethyl)pyrimidin-2-yl)amino)-1-methyl-1H-pyrazol-3-yl)-2-methylpropanenitrile], the IC50 was 30 to 60 nM. Still for that read-out and setting: for `Cc1nn(S(C)(=O)=O)cc1Nc1ncc(C(F)(F)F)c(C2CC2)n1` [Compound A-7, 4-cyclopropyl-N-(3-methyl-1-methylsulfonyl-pyrazol-4-yl)-5-(trifluoromethyl)pyrimidin-2-amine] the value was < 30 nM.

Staying with this assay, now noted: Table D-4; 5 nM LRRK2, 134 μM ATP, 60 minute reaction, 23° C.
As to `CCNc1nc(Nc2cnn(C3CCn4ccnc43)c2C)ncc1C(F)(F)F` (racemic) [Compound D-22, N2-(1-(6,7-dihydro-5H-pyrrolo[1,2-a]imidazol-7-yl)-5-methyl-1H-pyrazol-4-yl)-N4-ethyl-5-(trifluoromethyl)pyrimidine-2,4-diamine], the IC50 was < 30 nM. Regarding `CNc1nc(Nc2cn(C3CCn4ccnc43)nc2C)ncc1C(F)(F)F` (single isomer, unassigned) [Compound D-3, N2-[1-[6,7-dihydro-5H-pyrrolo[1,2-a]imidazol-7-yl]-3-methyl-1H-pyrazol-4-yl]-N4-methyl-5-(trifluoromethyl)pyrimidine-2,4-diamine], the IC50 was > 60 nM. `CNc1nc(Nc2cn(C3CCn4ccnc43)nc2C)ncc1C(F)(F)F` (single isomer, unassigned) [Compound D-4, N2-[1-[6,7-dihydro-5H-pyrrolo[1,2-a]imidazol-7-yl]-3-methyl-1H-pyrazol-4-yl]-N4-methyl-5-(trifluoromethyl)pyrimidine-2,4-diamine]: the IC50 was < 30 nM. With `CCNc1nc(Nc2cn(C3CCn4ccnc43)nc2C)ncc1C(F)(F)F` (single isomer, unassigned) [Compound D-23, N2-(1-(6,7-dihydro-5H-pyrrolo[1,2-a]imidazol-7-yl)-3-methyl-1H-pyrazol-4-yl)-N4-ethyl-5-(trifluoromethyl)pyrimidine-2,4-diamine], the IC50 is > 60 nM. On to `CCNc1nc(Nc2cn(C3CCn4ccnc43)nc2C)ncc1C(F)(F)F` (single isomer, unassigned) [Compound D-24, N2-(1-(6,7-dihydro-5H-pyrrolo[1,2-a]imidazol-7-yl)-3-methyl-1H-pyrazol-4-yl)-N4-ethyl-5-(trifluoromethyl)pyrimidine-2,4-diamine], for which the IC50 was < 30 nM.
